Data from patent publication US8785443B2, “Methods of using prodrugs of methyl hydrogen fumarate and pharmaceutical compositions thereof” (XenoPort, Inc., priority 2008, dated 2014).

Tests used:
[1] = Enzymatic stability of prodrug in porcine pancreatin; format: in vitro ADME; settings: porcine pancreatin 10 mg/mL, 0.1M Tris pH 7.4, 37° C.; for half-life at 40 µM: pig, read-out: T1/2 Parent Prodrug Cleavage (min) pPancreatin
Description: Porcine pancreatin (Sigma Aldrich, St. Louis, Mo.; P1625-100G) was diled to 10 mg/mL in 0.1M Tris buffer, pH 7.4.
(§1) The enzymatic stability assays for prodrug in CaCo2 S9, rat liver S9, rat plasma, pig pancreatin, and rat colonic was were performed using the following procedure. Ninety (90) μL of lysate is aliquoted to designated tubes on a cluster plates. The lysate was preincubated for 10 min at 37° C. With the exception of the t(0) time point, 10 μL of a 400 μM solution of test compound in 0.1M Tris buffer, pH 7.4 was added to multiple wells representing different incubation times. The samples were incubated at 37° C. At each time point, the reaction was quenched by adding 300 μL of 100% ethanol. The samples were thoroughly mixed, the tubes transferred to a V-bottom plate, and stored at −20° C. For the t(0) time point, the lysate was quenched with 300 μL of ice cold 100% ethanol, thoroughly mixed, 10 μL of 400 μM test compound was added and mixed, and the sample tube transferred to a V-bottom plate and stored at −20° C. For analysis, 180 μL from each sample was transferred to a 96 well V-bottom plate and sealed. After all time points were collected, the plate was centrifuged for 10 min at 5600 rpm at 4° C. One-hundred fifty (150) μL from each well was then transferred to a 96 well round bottom plate. Samples were analyzed using LC/MS/MS to determine the concentrations of prodrug and parent drug.
(§2) LC-MS/MS analysis for MHF was performed using an API 4000 equipped with an Agilent 1100 HPLC and a Leap Technologies autosampler. A HPLC Phenomenex Onyx Monolithic C18 (CHO-7644) column at a temperature of 35° C., flow rate of 2.0 mL/min, injection volume of 30 μL, and a 3 min run time was used. Mobile phase AI was 0.1% formic acid in water and Mobile phase AII was 0.1% formic acid in acetonitrile. The gradient was 98% AI/2% AII at time 0; 98% AI/2% AII at time 0.1 mM; 5% AI/95% AII at time 1.4 mM; 5% AI/95% AII at time 2.2 min; 98% AI/2% AII at time 2.3 mM; and 98% AI/2% AII at time 3.0 min MHF content was determined using negative ion mode (Q1 128.94; Q2 71).

[2] = Enzymatic stability of prodrug in rat colonic wash; format: in vitro ADME; settings: rat colonic wash undiluted, 37° C.; for half-life at 40 µM: pH 7.4, read-out: T1/2 Parent Prodrug Cleavage (min) rColonic Wash
Description: To prepare the rat colonic wash, the colon between the ceacum and rectum was resected from a euthanized rat. Five to 10 mL of PBS pH 7.4 buffer (depending on the weight of the rat) was flushed into the lumen of the large intestine and collected into a 250 mL glass beaker at 0° C. (ice bath). The colonic wash was transferred into 10 mL conical tubes using a 10 mL syringe fitted with a filter. Samples of 0.5 mL colonic wash are stored at −80° C. until the time of use. Colonic was used without dilution.
as §1, §2

[3] = Enzymatic stability of prodrug in rat liver S9; format: in vitro ADME; settings: rat liver S9 0.5 mg/mL, pH 7.4, 1 mM NADPH, 37° C.; for half-life at 40 µM: read-out: T1/2 Parent Prodrug Cleavage (min) rLiver
Description: Rat liver S9 (XenoTech, Lenexa, Kans.; R1000.59, 20 mg/mL) was diluted to 0.5 mg mL in 0.1 M potassium phosphate buffer at pH 7.4 and 1 mM NADPH cofactor.
as §1, §2

[4] = Enzymatic stability of prodrug in rat plasma; format: in vitro ADME; settings: 37° C.; for half-life at 40 µM: read-out: T1/2 Parent Prodrug Cleavage (min) rPlasma
Description: Rat plasma (Pel-Freez® Biologicals, Rogers, Ark.; 36150) was used as obtained from the supplier.
as §1, §2

[5] = pH 8.0 buffer stability; format: physicochemical; settings: 150 mM NaH2PO4 buffer pH 8.0, 60 min, 37° C.
Description: For the pH 8.0 stability studies, 190 μL of 150 mM NaH2PO4 buffer pH 8.0 was added to each sample tube. Ten (10) μL of 20 mM test compound was added to each tube and mixed. The samples were incubated for 60 min at 37° C. Following incubation, the samples were transferred to room temperature and 800 μL of 50% ACN in water was added to each tube. Samples were analyzed using LC/MS/MS to determine the concentrations of prodrug and parent drug.
as §2

[6] = Enzymatic stability of prodrug in CaCo2 S9 homogenate; format: in vitro ADME; settings: CaCo2 S9 0.5 mg/mL, 0.1M Tris pH 7.4, 37° C.; for half-life at 40 µM: human, Caco-2 cell S9 homogenate, read-out: T1/2 Parent Prodrug Cleavage (min) CaCo2
Description: CaCo2 S9 homogenate was prepared using the following procedure. CaCo2 cells were grown in culture for 21 days prior to harvesting. Culture medium was removed from the culture vessel and the monolayer was rinsed twice with 10-15 mL chilled PBS buffer. PBS buffer (7-10 mL) was added to the flask and the cells scraped from the growth surface and transferred to a centrifuge tube. The cells were pelleted by centrifugation at 1500 rpm for 5 min at 4° C. The supernatant was removed and the cell pellet washed with ice cooled PBS and repelleted by centrifugation. The supernatant was removed and the pellet resuspended in cell lysis buffer (0.15M KCl and 10 mM sodium phosphate buffer, pH 7.4). Cells were lysed by sonication at 4° C. using a probe sonicator. The lysed cells were then transferred to vials and centrifuged at 1600 rpm for 10 min at 4° C. to remove intact cells, nuclei, and large cellular debris. The supernatant was removed and transferred to a tube for centrifugation at 8600 rpm for 20 min at 4° C. After centrifugation, the resulting supernatant representing the CaCo2 cell homogenate S9 fraction was carefully removed and aliquoted into vials for storage at −80° C. until the time of use. At the time of use, CaCo2 S9 lysate was diluted to 0.5 mg/mL in 0.1M Tris buffer, pH 7.4.
as §1, §2

| Compound | half-life at 40 µM [1] [min] | half-life at 40 µM [2] [min] | half-life at 40 µM [3] [min] | half-life at 40 µM [4] [min] | pH 8.0: Percent DMF or prodrug remaining after 60 minutes [5] [%] | half-life at 40 µM [6] [min] | melting point [°C] | T1/2 Parent Prodrug Cleavage (min) pPancreatin [1] [min] | T1/2 Parent Prodrug Cleavage (min) rColonic Wash [2] [min] | T1/2 Parent Prodrug Cleavage (min) rLiver [3] [min] | T1/2 Parent Prodrug Cleavage (min) rPlasma [4] [min] | T1/2 Parent Prodrug Cleavage (min) CaCo2 [6] [min] |
| --- | --- | --- | --- | --- | --- | --- | --- | --- | --- | --- | --- | --- |
| CCN(CC)C(=O)COC(=O)/C=C/C(=O)OC [Compound 1, (N,N-Diethylcarbamoyl)methyl methyl (2E)but-2-ene-1,4-dioate] | 8 | > 60 | 2 | 1 | 63 | 8 | – | – | – | – | – | – |
| COC(=O)/C=C/C(=O)OCC(=O)N1CCOCC1 [Compound 3, Methyl 2-morpholin-4-yl-2-oxoethyl (2E)but-2-ene-1,4-dioate] | 8 | > 60 | 22 | 1 | 53 | 56 | 124 to 126 | – | – | – | – | – |
| COCCNC(=O)COC(=O)/C=C/C(=O)OC [Compound 5, [N-(2-Methoxyethyl)carbamoyl]methyl methyl (2E)but-2-ene-1,4-dioate] | 3 | > 60 | 10 | 2 | 53 | 30 | – | – | – | – | – | – |
| COC(=O)/C=C/C(=O)OCC(=O)N(C)OC [Compound 10, (N-Methoxy-N-methylcarbamoyl)methyl methyl (2E) but-2-ene-1,4-dioate] | 4 | > 60 | 1 | 1 | 42 | 3 | – | – | – | – | – | – |
| Methyl(N-(1,3,4-thiadiazol-2-yl)carbamoyl)methyl(2E)but-2ene-1,4-dioate [Compound 8] | – | – | – | – | 141 | – | – | 15 | 27 | 23 | 6 | 52 |

Now from value to compound:

| half-life at 40 µM [1] [min] | half-life at 40 µM [2] [min] | half-life at 40 µM [3] [min] | half-life at 40 µM [4] [min] | pH 8.0: Percent DMF or prodrug remaining after 60 minutes [5] [%] | half-life at 40 µM [6] [min] | melting point [°C] | T1/2 Parent Prodrug Cleavage (min) pPancreatin [1] [min] | T1/2 Parent Prodrug Cleavage (min) rColonic Wash [2] [min] | T1/2 Parent Prodrug Cleavage (min) rLiver [3] [min] | T1/2 Parent Prodrug Cleavage (min) rPlasma [4] [min] | T1/2 Parent Prodrug Cleavage (min) CaCo2 [6] [min] | Compound |
| --- | --- | --- | --- | --- | --- | --- | --- | --- | --- | --- | --- | --- |
| 1 | 25 | 9 | 9 | 17 | 4 | – | – | – | – | – | – | COC(=O)/C=C/C(=O)OCC(=O)NCc1ccccc1 [Compound 2, Methyl [N-benzylcarbamoyl]methyl (2E)but-2-ene-1,4-dioate] |
| 2 | 33 | 2 | 1 | 40 | 5 | – | – | – | – | – | – | CCCCNC(=O)COC(=O)/C=C/C(=O)OC [Compound 4, (N-Butylcarbamoyl)methyl methyl (2E)but-2-ene-1,4-dioate] |
| 4 | > 60 | 6 | 1 | 47 | 8 | – | – | – | – | – | – | COC(=O)/C=C/C(=O)OCC(=O)N(C)C [Compound 9] |
| – | – | – | – | – | – | 79 to 82 | – | – | – | – | – | COCCN(CCOC)C(=O)COC(=O)/C=C/C(=O)OC [Compound 11] |
| – | – | – | – | – | – | 70 to 73 | – | – | – | – | – | COC(=O)/C=C/C(=O)OC(C)C(=O)N1CCOCC1 (stereo not shown) [Compound 28, Methyl 1-methyl-2-morpholin-4-yl-2-oxoethyl (2E)but-2-ene-1,4-dioate] |
| – | – | – | – | – | – | 79 to 82 | – | – | – | – | – | COC(=O)/C=C/C(=O)O[C@@H](C)C(=O)N1CCOCC1 [Compound 31, (1S)-1-Methyl-2-morpholin-4-yl-2-oxoethyl methyl (2E)but-2-ene-1,4-dioate] |
